This data set deals with T. castaneum mixed-age cultures. The settings on record: 72 hours at 26±2° C., 19.5 liter tin container with 12 kg wheat.

Structures are written as SMILES. Like-named read-outs stand apart in the source and are kept apart here.

Description: Fumigation experiments with allyl acetate have been conducted in 19.5 litre capacity tin containers with mixed- age cultures of R. dominica, S. oryzae and T. castaneum as the test insects.
Mixed-age cultures of S. oryzae and R. dominica were obtained by allowing 300 adults of the individual species to breed in about 1 kg of wheat in a 2-liter glass jar. To obtain mixed- age culture of T. castaneum about 300 adults were released into 1 kg of whole-wheat flour plus 5% dried yeast in a 2-litre glass jar. The insect culture jars were kept under the rearing temperature conditions i.e., 25±1° C. for S. oryzae and T. castaneum and 30±1° C. for R. dominica.
The infested grain/flour after an incubation period of 7 weeks was used for the experiment. The cultures were weighed into 50 gm aliquots in 21 cm×14 cm size cloth bags. One set of three test insect bags comprising R. dominica, S. oryzae and T. castaneum were kept at the bottom of the container before filling the grain.
Another set of three-test insect bags was kept on the top layer of grains. The grain-filled containers were, then, fumigated with allyl acetate for 72 hours at 26±2° C. There were 6 doses ranging from 100 to 800 mg/litre with 3 replicates/dosage along with untreated controls. Required quantity of allyl acetate was measured in 10 and 25 ml measuring cylinder and quickly poured on to 5 gm of absorbent cotton wool kept over the grain layer in the tin container.
Immediately after dosing, the container was closed with the lid tightly and sealed along the rim with adhesive tape. At the end of 72 hour, the lid was removed to aerate the commodity and the test insect bags were retrieved and the contents transferred to 300 ml capacity glass bottles.
Insect survivors in the samples were recorded at weekly intervals for 8 weeks. Mortality in fumigated batches was calculated based on emergence/survivors in controls.

Consider `C=CCOC(C)=O` [allyl acetate], for which the “% mortality based on survivors in controls” value is, setting by setting: (100 mg/liter) “(100) %”; (150 mg/liter) “(100) %”; (200 mg/liter) “(100) %”; (400 mg/liter) “(100) %”; (600 mg/liter) “(100) %”; (800 mg/liter) “(100) %”. Also, the “No. of survivors from 50 g lots of mixed-age cultures following treatment” value (“No. of survivors” for short) (100 mg/liter) is 0; the “No. of survivors” value (150 mg/liter) stood at 0; the “No. of survivors” value (200 mg/liter) stood at 0; the “No. of survivors” value (400 mg/liter) came to 0; the “No. of survivors” value (600 mg/liter) is recorded as 0; the “No. of survivors” value (800 mg/liter) is given as 0.

The values are drawn from patent publication US20040191287A1, “Fumigation process for stored food grains” (priority 2003, published 2004).
